Results as given in patent publication US20090143279A1 (priority 2007, published 2009).
Like-named read-outs stand apart in the source and are kept apart here.

Experiments:
OXPHOS gene expression = format: cell-based, mouse; conditions: for GE-HTS (composite Z-score): normalized score vs mock-treated (DMSO) wells
[1] = tested on: cellular dehydrogenase activity; conditions: for MTT (composite Z-score): normalized score vs mock-treated (DMSO) wells
[2] = tested on: mitochondrial membrane potential; format: cell-based, mouse; conditions: for ΔΨm (composite Z-score): normalized score vs mock-treated (DMSO) wells
mtOXPHOS transcripts = format: cell-based, mouse; conditions: for mitoOX (composite Z-score): normalized score vs mock-treated (DMSO) wells
cytochrome c = format: cell-based, mouse; conditions: for cyt c (composite Z-score): normalized score vs mock-treated (DMSO) wells
nuOXPHOS transcripts = format: cell-based, mouse; conditions: for nucOX (composite Z-score): normalized score vs mock-treated (DMSO) wells
reactive oxygen species = format: cell-based, mouse; conditions: for ROS (composite Z-score): normalized score vs mock-treated (DMSO) wells
C2C12 myotubes = conditions: for Viability (composite Z-score): normalized score vs mock-treated (DMSO) wells
[3] = normalized composite Z-score vs mock-treated (DMSO) wells, Conc 20 μM
[4] = 20 μM, composite Z-score vs DMSO
[5] = composite Z-score vs DMSO, Conc 20 μM
[6] = composite Z-score vs DMSO, Conc 8.94 μM

`COc1ccc2c(c1)OC/C(=C/c1ccc(OC)c(OC)c1)C2=O` [sappanone A trimethyl ether] was tested, and the “GE-HTS (composite Z-score)” value (OXPHOS gene expression; Conc 20 μM) was 1.090, the “MTT (composite Z-score)” value ([1]; Conc 20 μM) was −0.980 and the “ΔΨm (composite Z-score)” value ([2]; Conc 20 μM) was −0.290. For the same compound, the “mitoOX (composite Z-score)” value (mtOXPHOS transcripts; Conc 20 μM) was 0.094, the “cyt c (composite Z-score)” value (cytochrome c; Conc 20 μM) was −0.471 and the “nucOX (composite Z-score)” value (nuOXPHOS transcripts; Conc 20 μM) was 1.458. For the same compound, the “ROS (composite Z-score)” value (reactive oxygen species; Conc 20 μM) was 0.120 and the “Viability (composite Z-score)” value (C2C12 myotubes; Conc 20 μM) was −0.259.

`C[C@]12CC[C@H](O)C[C@H]1CC[C@@H]1[C@@H]2[C@H](O)C[C@]2(C)[C@@H](C3=CC(=O)OC3)CC[C@]12O` [sarmentogenin] gave a GE-HTS (OXPHOS gene expression; [3]) of 0.508, an MTT [1, 3] of −0.191 and a ΔΨm [2, 3] of −0.354. For the same compound, the mitoOX (mtOXPHOS transcripts; [3]) was 0.077, the cyt c (cytochrome c; [3]) was 0.614 and the nucOX (nuOXPHOS transcripts; [3]) was 0.691. The ROS (reactive oxygen species; [3]) was −0.151 and the Viability (C2C12 myotubes; [3]) was 0.694.

Work on `COc1cc2ccc(=O)oc2cc1O` [scopoletin] yielded a GE-HTS (OXPHOS gene expression) of −0.462, a GE-HTS (OXPHOS gene expression; [4]) of 0.543 and an MTT [1] of 0.261. It also gave an MTT [1, 4] of −0.957, a ΔΨm [2] of 0.146 and a ΔΨm [2, 4] of −0.056. For the same compound, the mitoOX (mtOXPHOS transcripts) was −0.291, the mitoOX (mtOXPHOS transcripts; [4]) was 0.101 and the cyt c (cytochrome c) was 0.501. The cyt c (cytochrome c; [4]) was 0.928, the nucOX (nuOXPHOS transcripts) was −0.513 and the nucOX (nuOXPHOS transcripts; [4]) was 0.746. It also gave an ROS (reactive oxygen species) of −0.017, an ROS (reactive oxygen species; [4]) of 0.727 and a Viability (C2C12 myotubes) of 0.413. It also gave a Viability (C2C12 myotubes; [4]) of 0.675.

`C/C=C(/C)C(=O)O[C@H]1Cc2c(ccc3ccc(=O)oc23)OC1(C)C` [selinidin] was tested, and the “GE-HTS (composite Z-score)” value (OXPHOS gene expression; Conc 20 μM) was −0.347, the “MTT (composite Z-score)” value ([1]; Conc 20 μM) was −0.359 and the “ΔΨm (composite Z-score)” value ([2]; Conc 20 μM) was 0.013. For the same compound, the “mitoOX (composite Z-score)” value (mtOXPHOS transcripts; Conc 20 μM) was −0.285, the “cyt c (composite Z-score)” value (cytochrome c; Conc 20 μM) was −0.478 and the “nucOX (composite Z-score)” value (nuOXPHOS transcripts; Conc 20 μM) was −0.328. For the same compound, the “ROS (composite Z-score)” value (reactive oxygen species; Conc 20 μM) was 0.838 and the “Viability (composite Z-score)” value (C2C12 myotubes; Conc 20 μM) was 0.773.

With `O=C(O)c1cc(O)c2c(c1)[C@H]([C@H]1c3cc(C(=O)O)cc(O)c3C(=O)c3c(O[C@@H]4O[C@H](CO)[C@@H](O)[C@H](O)[C@H]4O)cccc31)c1cccc(O[C@@H]3O[C@H](CO)[C@@H](O)[C@H](O)[C@H]3O)c1C2=O` [sennoside A] the GE-HTS (OXPHOS gene expression; [5]) was −1.374, the MTT [1, 5] was −0.769 and the ΔΨm [2, 5] was −0.640. For the same compound, the mitoOX (mtOXPHOS transcripts; [5]) was −1.628, the cyt c (cytochrome c; [5]) was 0.362 and the nucOX (nuOXPHOS transcripts; [5]) was −1.093. For the same compound, the ROS (reactive oxygen species; [5]) was 0.137 and the Viability (C2C12 myotubes; [5]) was 0.602.

`CC(C)=CCc1c2c(c(O)c3c(=O)c(O)c(-c4ccccc4)oc13)C=CC(C)(C)O2` [sericetin] gave a GE-HTS (OXPHOS gene expression; [3]) of −0.890, an MTT [1, 3] of −1.507 and a ΔΨm [2, 3] of 6.788. It also gave a mitoOX (mtOXPHOS transcripts; [3]) of −1.132, a cyt c (cytochrome c; [3]) of −0.335 and a nucOX (nuOXPHOS transcripts; [3]) of −0.670. For the same compound, the ROS (reactive oxygen species; [3]) was 0.124 and the Viability (C2C12 myotubes; [3]) was −0.783.

`CN[C@H]1CC[C@@H](c2ccc(Cl)c(Cl)c2)c2ccccc21` [sertraline] was tested, and the GE-HTS (OXPHOS gene expression) was −1.068, the MTT [1] was −1.905 and the ΔΨm [2] was 0.420. The mitoOX (mtOXPHOS transcripts) was 0.020, the cyt c (cytochrome c) was −1.121 and the nucOX (nuOXPHOS transcripts) was −1.476. It also gave an ROS (reactive oxygen species) of 0.090 and a Viability (C2C12 myotubes) of 0.279.

In the case of `COc1cc(/C=C/C(=O)O)cc(OC)c1OC` [sinapic acid methyl ether], the GE-HTS (OXPHOS gene expression) is reported as −1.103, the MTT [1] is reported as −0.736 and the ΔΨm [2] is reported as −0.716. For the same compound, the mitoOX (mtOXPHOS transcripts) was −1.015, the cyt c (cytochrome c) was 0.207 and the nucOX (nuOXPHOS transcripts) was −1.058. The ROS (reactive oxygen species) was 0.722 and the Viability (C2C12 myotubes) was −0.934.

In the case of `COC1=C[C@@H]2[C@@H]3Cc4ccc(OC)c(O)c4[C@]2(CCN3C)CC1=O` [sinomenine], the GE-HTS (OXPHOS gene expression; [5]) is reported as −0.875, the MTT [1, 5] is reported as −1.489 and the ΔΨm [2, 5] is reported as −0.657. It also gave a mitoOX (mtOXPHOS transcripts; [5]) of −1.253, a cyt c (cytochrome c; [5]) of −0.117 and a nucOX (nuOXPHOS transcripts; [5]) of −0.565. For the same compound, the ROS (reactive oxygen species; [5]) was 0.777 and the Viability (C2C12 myotubes; [5]) was −0.937.

`CN[C@@H]1[C@@H](O)[C@@H](O[C@@H]2[C@@H](O)[C@H](O[C@H]3OC(CN)=CC[C@H]3N)[C@@H](N)C[C@H]2N)OC[C@]1(C)O` [sisomicin] showed a GE-HTS (OXPHOS gene expression; [6]) of −0.448, an MTT [1, 6] of −1.515 and a ΔΨm [2, 6] of −0.962. The mitoOX (mtOXPHOS transcripts; [6]) was −0.588, the cyt c (cytochrome c; [6]) was 0.746 and the nucOX (nuOXPHOS transcripts; [6]) was −0.337. For the same compound, the ROS (reactive oxygen species; [6]) was 1.889 and the Viability (C2C12 myotubes; [6]) was −0.274.

`CC[C@H](CC[C@@H](C)[C@H]1CC[C@H]2[C@@H]3CC=C4C[C@@H](OC(C)=O)CC[C@]4(C)[C@H]3CC[C@]12C)C(C)C` [sitosteryl acetate] gave a GE-HTS (OXPHOS gene expression; [3]) of −0.233, an MTT [1, 3] of −0.775 and a ΔΨm [2, 3] of −0.192. For the same compound, the mitoOX (mtOXPHOS transcripts; [3]) was 0.180, the cyt c (cytochrome c; [3]) was −0.443 and the nucOX (nuOXPHOS transcripts; [3]) was −0.389. For the same compound, the ROS (reactive oxygen species; [3]) was 0.930 and the Viability (C2C12 myotubes; [3]) was −0.827.

Work on `O=C(O)CF` [sodium fluoroacetate] yielded a GE-HTS (OXPHOS gene expression; [5]) of −0.009, an MTT [1, 5] of −1.379 and a ΔΨm [2, 5] of −0.784. It also gave a mitoOX (mtOXPHOS transcripts; [5]) of −0.459, a cyt c (cytochrome c; [5]) of 0.653 and a nucOX (nuOXPHOS transcripts; [5]) of 0.206. The ROS (reactive oxygen species; [5]) was 0.613 and the Viability (C2C12 myotubes; [5]) was −0.906.
